From article PMC8963254, “Effects of Lysine N-ζ-Methylation in Ultrashort Tetrabasic Lipopeptides (UTBLPs) on the Potentiation of Rifampicin, Novobiocin, and Niclosamide in Gram-Negative Bacteria” (Antibiotics, 2022)
Where two headings read alike, the source gives them in different places. Non-standard residues stand in square brackets, D forms with d. Residues, ends and D or L forms follow the SMILES beside them. *: point of attachment. Lys(Me3) = C[N+](C)(C)CCCC[C@H](N)C(=O)O; Octanoyl = CCCCCCCC(=O)*

What was measured:
A. baumannii ATCC 17978 = assay type: cell-based, Acinetobacter baumannii; conditions: ATCC 17978, 18 h
Method in brief: (§1)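 MIC was determined by broth microdilution following CLSI guidelines. Serially varied compound concentrations were incubated with bacterial inoculum at 5 × 10^5 CFU/mL (final) for 18 h at 37 °C. Growth was scored as turbidity by absorbance at 590 nm.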

E. coli ATCC 25922 [1] = assay type: cell-based, Escherichia coli; conditions: ATCC 25922, 18 h
Method in brief: as §1

E. faecalis ATCC 29212 [2] = assay type: cell-based, Enterococcus faecalis; conditions: ATCC 29212, 18 h
Method in brief: as §1

E. faecium ATCC 27270 [3] = assay type: cell-based, Enterococcus faecium; conditions: ATCC 27270, 18 h
Method in brief: as §1

A. baumannii AB027 = test: microbe, parasite or virus in culture; assay type: cell-based, Acinetobacter baumannii; conditions: AB027, 18 h
Method in brief: as §1

A. baumannii AB92247 = test: microbe, parasite or virus in culture; assay type: cell-based, Acinetobacter baumannii; conditions: AB92247, 18 h
Method in brief: as §1

E. coli 94393 [4] = test: microbe, parasite or virus in culture; assay type: cell-based, Escherichia coli; conditions: 94393, 18 h
Method in brief: as §1

E. coli 94474 [5] = test: microbe, parasite or virus in culture; assay type: cell-based, Escherichia coli; conditions: 94474, 18 h
Method in brief: as §1

K. pneumoniae 113250 [6] = test: microbe, parasite or virus in culture; assay type: cell-based, Klebsiella pneumoniae; conditions: 113250, 18 h
Method in brief: as §1

MRSE 61589 [7] = assay type: cell-based, Staphylococcus epidermidis; conditions: 61589, 18 h
Method in brief: as §1

MSSE 81388 [8] = assay type: cell-based, Staphylococcus epidermidis; conditions: 18 h
Method in brief: as §1

E. coli 94393 [9] = assay type: cell-based, Escherichia coli; conditions: for MICUTBLP: UTBLP alone
Method in brief: (§2)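 Values derive from a two-agent checkerboard with an 18 h, 37 °C incubation. FICI cut-offs: ≤0.5 synergy, 0.5–4 additive, >4 antagonism.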

E. coli 94474 [10] = assay type: cell-based, Escherichia coli; conditions: for MICUTBLP: UTBLP alone
Method in brief: as §2

E. coli ATCC 25922 [11] = assay type: cell-based, Escherichia coli; conditions: for MICUTBLP: UTBLP alone
Method in brief: as §2

K. pneumoniae 113250 [12] = assay type: cell-based, Klebsiella pneumoniae; conditions: for MICUTBLP: UTBLP alone
Method in brief: as §2

MRSA ATCC 33592 = assay type: cell-based, Staphylococcus aureus
Method in brief: as §2

S. aureus ATCC 29213 = assay type: cell-based, Staphylococcus aureus
Method in brief: as §2

MRSE 61589 [13] = assay type: cell-based, Staphylococcus epidermidis
Method in brief: as §2

MSSE 81388 [14] = assay type: cell-based, Staphylococcus epidermidis
Method in brief: as §2

E. faecalis ATCC 29212 [15] = assay type: cell-based, Enterococcus faecalis
Method in brief: as §2

E. faecium ATCC 27270 [16] = assay type: cell-based, Enterococcus faecium
Method in brief: as §2

[17] = UTBLP in combination with novobiocin
[18] = UTBLP in combination with rifampicin
[19] = novobiocin in combination with the UTBLP
[20] = rifampicin in combination with the UTBLP
[21] = UTBLP in combination with chloramphenicol
[22] = chloramphenicol in combination with the UTBLP
[23] = UTBLP alone, plate with chloramphenicol

Structure (SMILES): CCCCCCCC(=O)NCCCC[C@H](NC(=O)CCCCCCC)C(=O)N[C@@H](CCCC[N+](C)(C)C)C(=O)N[C@@H](CCCC[N+](C)(C)C)C(=O)N[C@@H](CCCC[N+](C)(C)C)C(=O)N[C@@H](CCCC[N+](C)(C)C)C(N)=O [UTBLP 8] (Octanoyl-K(Octanoyl)[Lys(Me3)][Lys(Me3)][Lys(Me3)][Lys(Me3)]-NH2)
- MIC (A. baumannii ATCC 17978): >128 mg/L
- MIC (E. coli ATCC 25922 [1]): >128 mg/L
- MIC (E. faecalis ATCC 29212 [2]): 128 mg/L
- MIC (E. faecium ATCC 27270 [3]): 128 mg/L
- MIC (A. baumannii AB027): > 128 mg/L
- MIC (A. baumannii AB92247): 128 mg/L
- MIC (E. coli 94393 [4]): 128 mg/L
- MIC (E. coli 94474 [5]): > 128 mg/L
- MIC (K. pneumoniae 113250 [6]): > 128 mg/L
- MIC (MRSE 61589 [7]): 128 mg/L
- MIC (MSSE 81388 [8]): 128 mg/L
- Interpretation (E. coli 94393 [9]; UTBLP + novobiocin): Synergy (FICI ≤ 0.5 is synergistic)
- Interpretation (E. coli 94393 [9]; UTBLP + rifampicin): Additive (0.5 < x ≤ 4 is additive)
- MICUTBLP (E. coli 94393 [9]; plate with novobiocin): 128 µg/mL
- MICUTBLP (E. coli 94393 [9]; plate with rifampicin): 128 µg/mL
- MICUTBLP [MICcombo] (E. coli 94393 [9]; [17]): 16 µg/mL
- MICUTBLP [MICcombo] (E. coli 94393 [9]; [18]): 16 µg/mL
- MICantibiotic [MICcombo] (E. coli 94393 [9]; [19]): 16 µg/mL
- Interpretation (E. coli 94474 [10]; UTBLP + novobiocin): Synergy (FICI ≤ 0.5 is synergistic)
- Interpretation (E. coli 94474 [10]; UTBLP + rifampicin): Additive (0.5 < x ≤ 4 is additive)
- MICUTBLP (E. coli 94474 [10]; plate with novobiocin): > 128 µg/mL
- MICUTBLP (E. coli 94474 [10]; plate with rifampicin): > 128 µg/mL
- MICUTBLP [MICcombo] (E. coli 94474 [10]; [17]): 8 µg/mL
- MICUTBLP [MICcombo] (E. coli 94474 [10]; [18]): 16 µg/mL
- MICantibiotic [MICcombo] (E. coli 94474 [10]; [19]): 64 µg/mL
- MICantibiotic [MICcombo] (E. coli 94474 [10]; [20]): 4 µg/mL
- Interpretation (E. coli ATCC 25922 [11]; UTBLP + chloramphenicol): Synergy (FICI ≤ 0.5 is synergistic)
- Interpretation (E. coli ATCC 25922 [11]; UTBLP + niclosamide): Synergy (FICI ≤ 0.5 is synergistic)
- Interpretation (E. coli ATCC 25922 [11]; UTBLP + novobiocin): Synergy (FICI ≤ 0.5 is synergistic)
- Interpretation (E. coli ATCC 25922 [11]; UTBLP + rifampicin): Additive (0.5 < x ≤ 4 is additive)
- MICUTBLP (E. coli ATCC 25922 [11]; plate with chloramphenicol): > 128 µg/mL
- MICUTBLP (E. coli ATCC 25922 [11]; plate with niclosamide): > 128 µg/mL
- MICUTBLP (E. coli ATCC 25922 [11]; plate with novobiocin): > 128 µg/mL
- MICUTBLP (E. coli ATCC 25922 [11]; plate with rifampicin): > 128 µg/mL
- MICUTBLP [MICcombo] (E. coli ATCC 25922 [11]; [21]): 8 µg/mL
- MICUTBLP [MICcombo] (E. coli ATCC 25922 [11]; UTBLP in combination with niclosamide): 8 µg/mL
- MICUTBLP [MICcombo] (E. coli ATCC 25922 [11]; [17]): 16 µg/mL
- MICUTBLP [MICcombo] (E. coli ATCC 25922 [11]; [18]): 16 µg/mL
- MICantibiotic [MICcombo] (E. coli ATCC 25922 [11]; [22]): 2 µg/mL
- MICantibiotic [MICcombo] (E. coli ATCC 25922 [11]; niclosamide in combination with the UTBLP): 8 µg/mL
- MICantibiotic [MICcombo] (E. coli ATCC 25922 [11]; [19]): 2 µg/mL
- MICantibiotic [MICcombo] (E. coli ATCC 25922 [11]; [20]): 1 µg/mL
- Interpretation (K. pneumoniae 113250 [12]; UTBLP + novobiocin): Synergy (FICI ≤ 0.5 is synergistic)
- Interpretation (K. pneumoniae 113250 [12]; UTBLP + rifampicin): Synergy (FICI ≤ 0.5 is synergistic)
- MICUTBLP (K. pneumoniae 113250 [12]; plate with novobiocin): > 128 µg/mL
- MICUTBLP (K. pneumoniae 113250 [12]; plate with rifampicin): > 128 µg/mL
- MICUTBLP [MICcombo] (K. pneumoniae 113250 [12]; [17]): 16 µg/mL
- MICUTBLP [MICcombo] (K. pneumoniae 113250 [12]; [18]): 16 µg/mL
- MICantibiotic [MICcombo] (K. pneumoniae 113250 [12]; [19]): 32 µg/mL
- MICantibiotic [MICcombo] (K. pneumoniae 113250 [12]; [20]): 4 µg/mL
- Interpretation (MRSA ATCC 33592; UTBLP + chloramphenicol): Additive (0.5 < x ≤ 4 is additive)
- MICUTBLP (MRSA ATCC 33592; [23]): > 128 µg/mL
- MICUTBLP [MICcombo] (MRSA ATCC 33592; [21]): 0.25 µg/mL
- MICchloramphenicol [MICcombo] (MRSA ATCC 33592; [22]): 64 µg/mL
- MICUTBLP (S. aureus ATCC 29213; [23]): > 128 µg/mL
- MICUTBLP [MICcombo] (S. aureus ATCC 29213; [21]): 0.25 µg/mL
- MICchloramphenicol [MICcombo] (S. aureus ATCC 29213; [22]): 8 µg/mL
- Interpretation (MRSE 61589 [13]; UTBLP + chloramphenicol): Additive (0.5 < x ≤ 4 is additive)
- MICUTBLP (MRSE 61589 [13]; [23]): 128 µg/mL
- MICUTBLP [MICcombo] (MRSE 61589 [13]; [21]): 0.25 µg/mL
- MICchloramphenicol [MICcombo] (MRSE 61589 [13]; [22]): 8 µg/mL
- Interpretation (MSSE 81388 [14]; UTBLP + chloramphenicol): Additive (0.5 < x ≤ 4 is additive)
- MICUTBLP (MSSE 81388 [14]; [23]): 128 µg/mL
- MICUTBLP [MICcombo] (MSSE 81388 [14]; [21]): 0.25 µg/mL
- MICchloramphenicol [MICcombo] (MSSE 81388 [14]; [22]): 4 µg/mL
- Interpretation (E. faecalis ATCC 29212 [15]; UTBLP + chloramphenicol): Additive (0.5 < x ≤ 4 is additive)
- MICUTBLP (E. faecalis ATCC 29212 [15]; [23]): 128 µg/mL
- MICUTBLP [MICcombo] (E. faecalis ATCC 29212 [15]; [21]): 16 µg/mL
- MICchloramphenicol [MICcombo] (E. faecalis ATCC 29212 [15]; [22]): 4 µg/mL
- Interpretation (E. faecium ATCC 27270 [16]; UTBLP + chloramphenicol): Additive (0.5 < x ≤ 4 is additive)
- MICUTBLP (E. faecium ATCC 27270 [16]; [23]): > 128 µg/mL
- MICUTBLP [MICcombo] (E. faecium ATCC 27270 [16]; [21]): 0.25 µg/mL
- MICchloramphenicol [MICcombo] (E. faecium ATCC 27270 [16]; [22]): 4 µg/mL
